# Results taken from ChEMBL document CHEMBL5247667, “Design, synthesis and characterizations of prodrugs of brexanolone” (Bioorg Med Chem Lett, 2023).
# Tests used:
# [1] = Metabolic stability in human liver S9 fraction assessed as half life at 1 uM incubated for 60 min by LC-MS/MS method; assay type: ADME, subcellular
# [2] = Metabolic stability in Sprague-Dawley rat plasma assessed as half life at 1 uM incubated for 60 min by LC-MS/MS method; assay type: ADME, cell-free
# [3] = Metabolic stability in human plasma assessed as half life at 1 uM incubated for 60 min by LC-MS/MS method; assay type: ADME, cell-free
# [4] = Metabolic stability in beagle dog plasma assessed as half life at 1 uM incubated for 60 min by LC-MS/MS method; assay type: ADME, cell-free, Canis lupus familiaris
# [5] = Metabolic stability in beagle dog liver S9 fraction assessed as half life at 1 uM incubated for 60 min by LC-MS/MS method; assay type: ADME, subcellular, Canis lupus familiaris
# [6] = AUClast in Sprague-Dawley rat assessed as BXN at 5 mg/kg, IM administered for 30 mins measured after 24 hrs post dose by LC-MS/MS analysis; assay type: ADME, organism-based; design: time 24.5 hrs, dose 5 mg/kg, route im; details: in vivo, 24.5 h
# [7] = Half life in Sprague-Dawley rat assessed as BXN at 1 mg/kg, IV administered for 30 mins measured after 24 hrs post dose by LC-MS/MS analysis; assay type: ADME, organism-based; details: in vivo, 24.5 h
# [8] = Cmax in beagle dog at 1 mg/kg, IV administered for 30 mins measured after 24 hrs post dose by LC-MS/MS analysis; assay type: ADME, organism-based, Canis lupus familiaris; design: time 24.5 hrs, dose 1 mg/kg, route iv; details: in vivo
# [9] = Half life in Sprague-Dawley rat at 1 mg/kg, IV administered for 30 mins measured after 24 hrs post dose by LC-MS/MS analysis; assay type: ADME, organism-based; details: in vivo, time 24.5 hrs
# [10] = AUClast in Sprague-Dawley rat at 1 mg/kg, IV administered for 30 mins measured after 24 hrs post dose by LC-MS/MS analysis; assay type: ADME, organism-based; design: dose 1 mg/kg, time 24.5 hrs, route iv; details: in vivo
# [11] = AUClast in beagle dog assessed as BXN at 1 mg/kg, IV administered for 30 mins measured after 24 hrs post dose by LC-MS/MS analysis; assay type: ADME, organism-based, Canis lupus familiaris; design: dose 1 mg/kg, time 24.5 hrs, route iv; details: in vivo, 24.5 h
# [12] = AUClast in Sprague-Dawley rat assessed as BXN at 1 mg/kg, IV administered for 30 mins measured after 24 hrs post dose by LC-MS/MS analysis; assay type: ADME, organism-based; design: dose 1 mg/kg, time 24.5 hrs, route iv; details: in vivo, 24.5 h
# [13] = Half life in beagle dog assessed as BXN at 1 mg/kg, IV administered for 30 mins measured after 24 hrs post dose by LC-MS/MS analysis; assay type: ADME, organism-based, Canis lupus familiaris; details: in vivo, 24.5 h
# [14] = Prodrug conversion in Sprague-Dawley rat assessed as ratio of AUC for compound to BXN at 1 mg/kg,IV and measured after 60 mins by LC-MS/MS analysis; assay type: ADME, organism-based; details: in vivo, 1 h
# [15] = Cmax in beagle dog assessed as BXN at 5 mg/kg, IM administered for 30 mins measured after 24 hrs post dose by LC-MS/MS analysis; assay type: ADME, organism-based, Canis lupus familiaris; design: time 24.5 hrs, dose 5 mg/kg, route im; details: in vivo, 24.5 h
# [16] = AUClast in beagle dog assessed as BXN at 5 mg/kg, IM administered for 30 mins measured after 24 hrs post dose by LC-MS/MS analysis; assay type: ADME, organism-based, Canis lupus familiaris; design: time 24.5 hrs, dose 5 mg/kg, route im; details: in vivo, 24.5 h
# [17] = Clearance in Sprague-Dawley rat at 1 mg/kg, IV administered for 30 mins measured after 24 hrs post dose by LC-MS/MS analysis; assay type: ADME, organism-based; details: in vivo, time 24.5 hrs
# [18] = Cmax in beagle dog assessed as BXN at 1 mg/kg, IV administered for 30 mins measured after 24 hrs post dose by LC-MS/MS analysis; assay type: ADME, organism-based, Canis lupus familiaris; design: dose 1 mg/kg, time 24.5 hrs, route iv; details: in vivo, 24.5 h
# [19] = Half life in Sprague-Dawley rat assessed as BXN at 5 mg/kg, IM administered for 30 mins measured after 24 hrs post dose by LC-MS/MS analysis; assay type: ADME, organism-based; details: in vivo, 24.5 h
# [20] = Cmax in Sprague-Dawley rat assessed as BXN at 1 mg/kg, IV administered for 30 mins measured after 24 hrs post dose by LC-MS/MS analysis; assay type: ADME, organism-based; design: time 24.5 hrs, dose 1 mg/kg, route iv; details: in vivo, 24.5 h
# [21] = Prodrug conversion in beagle dog assessed as ratio of AUC for compound to BXN at 5 mg/kg,IM and measured after 60 mins by LC-MS/MS analysis; assay type: ADME, organism-based, Canis lupus familiaris; details: in vivo, 1 h
# [22] = Cmax in Sprague-Dawley rat at 1 mg/kg, IV administered for 30 mins measured after 24 hrs post dose by LC-MS/MS analysis; assay type: ADME, organism-based; design: time 24.5 hrs, dose 1 mg/kg, route iv; details: in vivo
# [23] = Prodrug conversion in Sprague-Dawley rat assessed as ratio of AUC for compound to BXN at 5 mg/kg,IM and measured after 60 mins by LC-MS/MS analysis; assay type: ADME, organism-based; details: in vivo, 1 h
# [24] = Half life in beagle dog assessed as BXN at 5 mg/kg, IM administered for 30 mins measured after 24 hrs post dose by LC-MS/MS analysis; assay type: ADME, organism-based, Canis lupus familiaris; details: in vivo, 24.5 h
# [25] = Prodrug conversion in beagle dog assessed as ratio of AUC for compound to BXN at 1 mg/kg,IV and measured after 60 mins by LC-MS/MS analysis; assay type: ADME, organism-based, Canis lupus familiaris; details: in vivo, 1 h
# [26] = Cmax in Sprague-Dawley rat assessed as BXN at 5 mg/kg, IM administered for 30 mins measured after 24 hrs post dose by LC-MS/MS analysis; assay type: ADME, organism-based; design: time 24.5 hrs, dose 5 mg/kg, route im; details: in vivo, 24.5 h
# [27] = AUClast in beagle dog at 1 mg/kg, IV administered for 30 mins measured after 24 hrs post dose by LC-MS/MS analysis; assay type: ADME, organism-based, Canis lupus familiaris; design: time 24.5 hrs, dose 1 mg/kg, route iv; details: in vivo
# [28] = Metabolic stability in Sprague-Dawley rat liver S9 fraction assessed as half life at 1 uM incubated for 60 min by LC-MS/MS method; assay type: ADME, subcellular
smiles,measurement,setting,value
CC(=O)OCCCC(=O)O[C@@H]1CC[C@@]2(C)[C@@H](CC[C@@H]3[C@@H]2CC[C@]2(C)[C@@H](C(C)=O)CC[C@@H]32)C1,half-life at 1 µM,[1],0.9 min
same,half-life at 1 µM,[2],1.6 min
same,half-life at 1 µM,[3],176 min
same,half-life at 1 µM,[4],138 min
CC(=O)[C@H]1CC[C@H]2[C@@H]3CC[C@H]4C[C@H](OC(=O)CC5CCCC5)CC[C@]4(C)[C@H]3CC[C@]12C,half-life at 1 µM,[1],25 min
same,half-life at 1 µM,[3],300 min
CC(=O)OCCCC(C)C(=O)O[C@@H]1CC[C@@]2(C)[C@@H](CC[C@@H]3[C@@H]2CC[C@]2(C)[C@@H](C(C)=O)CC[C@@H]32)C1 (stereo partly specified),half-life at 1 µM,[1],0.9 min
same,half-life at 1 µM,[3],145 min
same,half-life at 1 µM,[4],233 min
same,half-life at 1 µM,[5],1 min
CC(=O)[C@H]1CC[C@H]2[C@@H]3CC[C@H]4C[C@H](OC(=O)OCc5oc(=O)oc5C)CC[C@]4(C)[C@H]3CC[C@]12C,AUClast,[6],253 ng·h/mL
same,t1/2,[7],1900 min
same,Cmax,[8],151 ng/mL
same,half-life,[9],17 min
same,AUC(0-t) at 24.5 h,[10],38.6 ng·h/mL
same,AUClast,[11],148 ng·h/mL
same,AUClast,[12],113 ng·h/mL
same,t1/2,[13],28.4 min
same,Ratio AUC,[14],> 253
same,Cmax,[15],26.6 ng/mL
same,AUClast,[16],122 ng·h/mL
same,clearance,[17],440 mL/min/kg
same,half-life at 1 µM,[1],1.2 min
same,Cmax,[18],241 ng/mL
same,t1/2,[19],1730 min
same,Cmax,[20],107 ng/mL
same,Ratio AUC,[21],> 122
same,Cmax,[22],103 ng/mL
same,half-life at 1 µM,[2],< 2 min
same,half-life at 1 µM,[3],40 min
same,Ratio AUC,[23],2.9
same,t1/2,[24],618 min
same,half-life at 1 µM,[4],30 min
same,Ratio AUC,[25],2.4
same,half-life at 1 µM,[5],2.3 min
same,Cmax,[26],23.4 ng/mL
same,AUC(0-t) at 24.5 h,[27],62.6 ng·h/mL
CC(=O)[C@H]1CC[C@H]2[C@@H]3CC[C@H]4C[C@H](OC(=O)CCCOC(=O)C(C)C)CC[C@]4(C)[C@H]3CC[C@]12C,half-life at 1 µM,[1],1.2 min
same,half-life at 1 µM,[2],1.2 min
same,half-life at 1 µM,[3],140 min
same,half-life at 1 µM,[4],233 min
same,half-life at 1 µM,[5],1.9 min
same,half-life at 1 µM,[28],1.1 min
CCCCOC(=O)O[C@@H]1CC[C@@]2(C)[C@@H](CC[C@@H]3[C@@H]2CC[C@]2(C)[C@@H](C(C)=O)CC[C@@H]32)C1,half-life at 1 µM,[1],1.6 min
same,half-life at 1 µM,[2],6.3 min
same,half-life at 1 µM,[3],> 233 min
same,half-life at 1 µM,[4],132 min
same,half-life at 1 µM,[5],1.5 min
same,half-life at 1 µM,[28],16 min
CC(=O)[C@H]1CC[C@H]2[C@@H]3CC[C@H]4C[C@H](OC(=O)NCCOC(=O)C(C)C)CC[C@]4(C)[C@H]3CC[C@]12C,half-life at 1 µM,[1],0.6 min
same,half-life at 1 µM,[3],289 min
